Target: T1, human PTP1B catalytic domain (residues 1–298) (Homo sapiens, UniProt P18031)
T1 construct: The catalytic domain (residues 1–298) of human PTP1B; His tag (N); made in house; host or cells: E. coli
T1 sequence (P18031 1-298): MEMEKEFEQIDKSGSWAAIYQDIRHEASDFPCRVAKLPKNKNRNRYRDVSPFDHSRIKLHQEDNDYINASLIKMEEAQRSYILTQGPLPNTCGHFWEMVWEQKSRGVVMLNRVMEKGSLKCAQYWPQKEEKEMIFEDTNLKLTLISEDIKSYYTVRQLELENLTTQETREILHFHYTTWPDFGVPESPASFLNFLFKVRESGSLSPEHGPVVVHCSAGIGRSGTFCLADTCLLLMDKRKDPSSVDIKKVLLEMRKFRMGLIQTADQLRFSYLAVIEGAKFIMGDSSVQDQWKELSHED
Test: hPTP1B in vitro activity assay (pNPP dephosphorylation)
Type: biochemical
Details: Isomer 1 compared with Isomer 2 (5S/5R diastereomers separated by chiral HPLC)
Protocol: Compounds were serially diluted in DMSO and spotted into the assay plate. Both the enzyme and substrate were diluted into the assay buffer containing 25 mM tris-bis-propone (pH 7.0 @ rt) and 0.1 mg/ml of BSA. 40 of μL enzyme solution was added to the assay plate containing compounds and was incubated for 30 minutes. 40 μL of substrate solution was then added to the assay plate to initiate the reaction. The initial reaction rates of the dephosphorylation of p-nitrophenylphosphate to p-nitrophenol are measured by monitoring absorbance at 410 nm on a SpectraMax for 15–30 min.

In the case of `O=C(O)C(F)(F)F.O=C(O)C(F)(F)F.O=C1C[C@@H](c2ccc(C[C@H](Nc3nc4cc(F)ccc4s3)c3nc4ccccc4[nH]3)cc2)S(=O)(=O)N1.O=C1C[C@H](c2ccc(C[C@H](Nc3nc4cc(F)ccc4s3)c3nc4ccccc4[nH]3)cc2)S(=O)(=O)N1` (single isomer, unassigned; isomer 1) [4.179 Isomer 1], the “relative biological activity of the separated diastereomers in the enzyme assay” value is reported as “more biologically active”.

— US7141596B2, “Inhibitors of proteins that bind phosphorylated molecules” (Incyte Corporation, priority 2003, dated 2006)
